Source: patent US20140199410A1, “EDIBLE BROWN ALGAE EXTRACT WITH A LOW IODINE CONTENT” (ALGUES ET MER, priority 2011, published 2014)

Target: T1, alpha-amylase (Homo sapiens, UniProt P0DUB6)
T1 sequence (P0DUB6 16-511): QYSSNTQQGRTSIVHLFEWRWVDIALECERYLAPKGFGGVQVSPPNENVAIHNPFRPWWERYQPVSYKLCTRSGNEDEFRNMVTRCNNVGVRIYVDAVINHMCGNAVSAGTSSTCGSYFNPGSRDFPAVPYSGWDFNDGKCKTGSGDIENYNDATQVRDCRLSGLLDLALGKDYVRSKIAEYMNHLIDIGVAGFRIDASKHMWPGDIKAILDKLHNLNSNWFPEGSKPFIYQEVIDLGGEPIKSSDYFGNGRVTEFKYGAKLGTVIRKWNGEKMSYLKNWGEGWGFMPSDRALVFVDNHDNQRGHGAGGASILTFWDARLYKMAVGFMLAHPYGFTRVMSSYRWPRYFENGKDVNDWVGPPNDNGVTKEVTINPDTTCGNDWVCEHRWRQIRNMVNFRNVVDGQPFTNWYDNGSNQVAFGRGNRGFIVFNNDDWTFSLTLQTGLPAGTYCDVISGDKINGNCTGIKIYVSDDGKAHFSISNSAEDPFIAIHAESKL
Test: In vitro inhibition of alpha-amylase (colorimetric, starch to maltose)
Format: biochemical
Conditions: read-out: Inhibitory Activity Alpha-amylase
Experimental: The methods for determining enzyme activities are conventional colorimetric methods.
The principle is as follows: • starch is incubated with an enzyme (for example human salivary amylase).

inhibition at 1000 µg/mL: 93%
Compound: C[C@H]1O[C@H](O[C@H]2[C@H](O)[C@@H](O)[C@@H](O[C@H]3[C@H](O)[C@@H](O)C(O)O[C@@H]3CO)O[C@@H]2CO)[C@H](O)[C@@H](O)[C@@H]1N[C@H]1C=C(CO)[C@@H](O)[C@H](O)[C@H]1O (stereo partly shown) [Glucor ™, Acarbose]
